Results: patent US6407217B1, “Imidazolinone haptens and antigens and enzyme conjugates prepared therefrom” (American Cyanamid Company, priority 1994, dated 2002)

Assays:
Type in all cases: binding, mouse
[1] = molecular target: monoclonal antibody 2C6.5; assay: Indirect competitive enzyme immunoassay, monoclonal antibody 2C6.5
Excerpt: (§1) An indirect enzyme immunoassay is used to screen for the production of anti-imidazolinone anti-bodies in the serum of the immunized mice and in cell fusion cultures. The method used is essentially the same as the method described by Voller, et al (Manual of Clinical Immunology, eds. N. Rose Friedman, H., pp. 506-512, 1976). For the indirect enzyme immunoassays, an antigen is adsorbed onto polystyrene flat bottom wells in 0.1M Na2CO3 buffer pH 9.6. Excess unbound material is washed away with buffer (PBS, containing 0.01M NaH2PO4—Na2HPO4 pH 7.6 with 0.05% TWEEN® 20 (a polyoxyethyene sorbitan monolaurate surpactantor Atlas chemical industries and 0.02% NaN3). A 0.05% gelatin solution prepared in PBS is used to block the sites unoccupied by the antigen to prevent non-specific binding of reagents. Antibody from serum or culture are added into the wells for binding to the bound antigen. The wells are washed and the amount of bound anitbody is determined by adding alkaline phosphatase-conjugated goat anti-mouse IgG (Boehringer) to the wells followed by the addition of a p-nitrophenyl phosphate solution for color development. The color intensity is determined spectrophotometrically and is used to determine the titers.
(§2) The bound antigen and imidazolinone compound compete for the antibody molecules. The wells are then washed and the color is developed as described above. In this assay, the color is inversely proportional to the amount of imidazolinone compound. In practice, standard curves are generated with known amounts of an imidazolinone compound and amounts present in test samples are calculated by interpolation.
(§3) Indirect competitive enzyme immunoassays for several imidazolinone compounds, using various monoclonal antibodies and antigens, are conducted according to the procedure described in Example 9. Antigens G and H are as described in Example 10 and Antigen I is shown below.

[2] = test system: monoclonal antibody 1D2.6; assay: Indirect competitive enzyme immunoassay, monoclonal antibody 1D2.6
Excerpt: as §1, §2, §3

[3] = molecular target: monoclonal antibody 3A5.1; assay: Indirect competitive enzyme immunoassay, monoclonal antibody 3A5.1
Excerpt: as §1, §2, §3

[4] = molecular target: monoclonal antibody 3A2.2; assay: Indirect competitive enzyme immunoassay, monoclonal antibody 3A2.2
Excerpt: as §1, §2, §3

[5] = test system: monoclonal antibody 1A5.5; assay: Indirect competitive enzyme immunoassay, monoclonal antibody 1A5.5; settings: for I50 (half-maximal inhibition): MAb 1A5.5, coating antigen H
Excerpt: as §1, §2, §3

[6] = test system: monoclonal antibody 3A2.2; assay: Direct competitive enzyme immunoassay with MAb 3A2.2 and alkaline phosphatase enzyme conjugate; settings: mean of triplicate
Excerpt: The monoclonal antibody 3A2.2 prepared in Example 10 and the enzyme conjugate prepared in Example 12 are used to establish a direct competitive enzyme immunoassay method for the determination of the concentration of imazapyr in samples. A constant amount of the monoclonal antibody 3A2.2 is adsorbed onto polystyrene plate wells through an affinity purified goat anti-mouse immunoglobulin which is previously adsorbed onto the polystyrene plate wells. The wells are washed with buffer (PBS, containing 0.01M NaH2PO4—Na2HPO4 pH 7.6 with 0.05% TWEEN® 20 (a polyoxyethylene sorbitan monolaurate surfactant of Atlas Chemical Industries and 0.02% NaN3) and blocked with a 0.05% gelatin solution prepared in PBS. Standard solutions having concentrations of imazapyr from 0 to 5,000 ng/mL are added to the blocked wells followed by the addition of the aforementioned enzyme conjugate.
After several minutes, the wells are washed and the color is developed by adding BRL alkaline phosphatase substrate amplification kit (commercially available from GIBCO BRL Life Technologies Inc., […], Md.). After several minutes, readings are taken for each well at 490 nm using a microwell reader.
A standard curve plot having the log of imazapyr concentration on the x-axis and the optical density reading at 490 nm (OD 490) on the Y-axis is used to determine unknown concentrations of imazapyr present in soil, water or plant samples from their OD 490 values.
The OD 490 readings for 6 imazapyr standard solutions and a solvent blank are obtained from a direct enzyme immunoassay experiment run in triplicate. The standard curve obtained by plotting the mean OD 490 reading versus the logarithm of the standard imazapyr concentration is used to determine unknown imazapyr concentrations from about 0.5 ng/mL to 500 ng/mL.

Molecule	I50 (half-maximal inhibition) ([1]; MAb 2C6.5, coating antigen G)	I50 (half-maximal inhibition) ([1]; MAb 2C6.5, coating antigen I)	affinity compared to the other imidazolinone compounds ([2]; MAb 1D2.6)	I50 (half-maximal inhibition) ([2]; MAb 1D2.6, coating antigen G)	I50 (half-maximal inhibition) ([2]; MAb 1D2.6, coating antigen I)	I50 (half-maximal inhibition) ([3]; MAb 3A5.1, coating antigen G)	I50 (half-maximal inhibition) ([3]; MAb 3A5.1, coating antigen I)	I50 (half-maximal inhibition) ([4]; MAb 3A2.2, coating antigen G)	I50 (half-maximal inhibition) ([4]; MAb 3A2.2, coating antigen I)	affinity compared to the other imidazolinone compounds ([5]; MAb 1A5.5)	I50 (half-maximal inhibition) [5]	OD 490 Reading ([6]; imazapyr 0.05 ng/mL)	OD 490 Reading ([6]; imazapyr 0.50 ng/mL)	OD 490 Reading ([6]; imazapyr 5.0 ng/mL)	OD 490 Reading ([6]; imazapyr 50 ng/mL)	OD 490 Reading ([6]; imazapyr 500 ng/mL)	OD 490 Reading ([6]; imazapyr 5,000 ng/mL)
CCc1cnc(C2=NC(C)(C(C)C)C(=O)N2)c(C(=O)O)c1 (stereo not drawn) [Imazethapyr, 5-ethyl-2-(4-isopropyl-4-methyl-5-oxo-2-imidazolin-2-yl)nicotinic acid]	13 ppb (ng/mL)	15 ppb (ng/mL)	greater affinity	>10,000 ppb (ng/mL)	20 ppb (ng/mL)	>1,000 ppb (ng/mL)	220 ppb (ng/mL)	34 ppb (ng/mL)	21 ppb (ng/mL)	greater affinity	60 ppb (ng/mL)						
CC(C)C1(C)N=C(c2ncccc2C(=O)O)NC1=O (stereo not drawn) [Imazapyr, 2-(4-isopropyl-4-methyl-5-oxo-2-imidazolin-2-yl)nicotinic acid]				>10,000 ppb (ng/mL)	>1,000 ppb (ng/mL)		>5,000 ppb (ng/mL)	290 ppb (ng/mL)	331 ppb (ng/mL)		500 ppb (ng/mL)	2.671	2.507	1.893	0.801	0.474	0.446
CC(C)C1(C)N=C(c2nc3ccccc3cc2C(=O)O)NC1=O (stereo not drawn) [Imazaquin, 2-(4-isopropyl-4-methyl-5-oxo-2-imidazolin-2-yl)-3-quinolinecarboxylic acid]				>10,000 ppb (ng/mL)	2,000 ppb (ng/mL)		800 ppb (ng/mL)	5 ppb (ng/mL)	3 ppb (ng/mL)		>1,000 ppb (ng/mL)						
Cc1cnc(C2=NC(C)(C(C)C)C(=O)N2)c(C(=O)O)c1 (stereo not drawn) [Imazamethapyr, 2-(4-isopropyl-4-methyl-5-oxo-2-imidazolin-2-yl)-5-methylnicotinic acid]	171 ppb (ng/mL)	204 ppb (ng/mL)		>10,000 ppb (ng/mL)	250 ppb (ng/mL)	>1,000 ppb (ng/mL)	340 ppb (ng/mL)	31 ppb (ng/mL)	27 ppb (ng/mL)		100 ppb (ng/mL)						
mixture of methyl 6-(4-isopropyl-4-methyl-5-oxo-2-imidazolin-2-yl)-m-toluate and methyl 2-(4-isopropyl-4-methyl-5-oxo-2-imidazolin-2-yl)-p-toluate [Imazamethabenz-methyl]				>10,000 ppb (ng/mL)	105 ppb (ng/mL)	400 ppb (ng/mL)	90 ppb (ng/mL)	322 ppb (ng/mL)	356 ppb (ng/mL)		500 ppb (ng/mL)						
